pEC50, pIC50: −log10 of the molar value. Values joined by “and” are separate entries in the source; they are usually repeats but may differ in a detail not shown here. Equal values may be shown once. “Also recorded” adds a separate entry of the source. Where a name gives a salt, the structure may show the parent alone.
Assays:
ABCG2 [1] = target: T1, ABCG2 (Homo sapiens, UniProt Q9UNQ0); assay: JC-1 efflux inhibition dose-response, flow cytometry, Ig-MXP3 cells; assay type: cell-based
T1 sequence (Q9UNQ0 1-655): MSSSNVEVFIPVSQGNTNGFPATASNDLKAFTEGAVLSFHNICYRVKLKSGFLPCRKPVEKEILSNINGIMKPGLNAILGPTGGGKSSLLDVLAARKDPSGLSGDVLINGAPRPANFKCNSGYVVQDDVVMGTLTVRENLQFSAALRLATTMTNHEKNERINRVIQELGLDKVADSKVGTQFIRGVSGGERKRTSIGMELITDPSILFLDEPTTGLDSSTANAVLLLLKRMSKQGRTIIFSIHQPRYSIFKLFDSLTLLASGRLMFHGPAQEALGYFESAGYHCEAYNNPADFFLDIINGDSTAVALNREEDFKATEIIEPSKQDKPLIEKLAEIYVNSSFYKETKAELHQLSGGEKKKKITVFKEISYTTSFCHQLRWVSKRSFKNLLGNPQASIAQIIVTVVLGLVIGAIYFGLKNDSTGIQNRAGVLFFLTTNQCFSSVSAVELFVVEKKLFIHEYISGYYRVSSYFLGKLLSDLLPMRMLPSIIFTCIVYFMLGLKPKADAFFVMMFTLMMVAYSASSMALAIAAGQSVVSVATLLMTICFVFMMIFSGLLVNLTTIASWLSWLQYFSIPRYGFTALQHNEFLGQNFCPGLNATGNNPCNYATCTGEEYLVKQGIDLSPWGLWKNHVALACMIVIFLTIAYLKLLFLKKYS

ABCB1 [2] = target: T2, ABCB1 (Homo sapiens, UniProt P08183); assay: JC-1 efflux inhibition dose-response, flow cytometry, Jurkat-DNR cells
T2 sequence (P08183 whole entry): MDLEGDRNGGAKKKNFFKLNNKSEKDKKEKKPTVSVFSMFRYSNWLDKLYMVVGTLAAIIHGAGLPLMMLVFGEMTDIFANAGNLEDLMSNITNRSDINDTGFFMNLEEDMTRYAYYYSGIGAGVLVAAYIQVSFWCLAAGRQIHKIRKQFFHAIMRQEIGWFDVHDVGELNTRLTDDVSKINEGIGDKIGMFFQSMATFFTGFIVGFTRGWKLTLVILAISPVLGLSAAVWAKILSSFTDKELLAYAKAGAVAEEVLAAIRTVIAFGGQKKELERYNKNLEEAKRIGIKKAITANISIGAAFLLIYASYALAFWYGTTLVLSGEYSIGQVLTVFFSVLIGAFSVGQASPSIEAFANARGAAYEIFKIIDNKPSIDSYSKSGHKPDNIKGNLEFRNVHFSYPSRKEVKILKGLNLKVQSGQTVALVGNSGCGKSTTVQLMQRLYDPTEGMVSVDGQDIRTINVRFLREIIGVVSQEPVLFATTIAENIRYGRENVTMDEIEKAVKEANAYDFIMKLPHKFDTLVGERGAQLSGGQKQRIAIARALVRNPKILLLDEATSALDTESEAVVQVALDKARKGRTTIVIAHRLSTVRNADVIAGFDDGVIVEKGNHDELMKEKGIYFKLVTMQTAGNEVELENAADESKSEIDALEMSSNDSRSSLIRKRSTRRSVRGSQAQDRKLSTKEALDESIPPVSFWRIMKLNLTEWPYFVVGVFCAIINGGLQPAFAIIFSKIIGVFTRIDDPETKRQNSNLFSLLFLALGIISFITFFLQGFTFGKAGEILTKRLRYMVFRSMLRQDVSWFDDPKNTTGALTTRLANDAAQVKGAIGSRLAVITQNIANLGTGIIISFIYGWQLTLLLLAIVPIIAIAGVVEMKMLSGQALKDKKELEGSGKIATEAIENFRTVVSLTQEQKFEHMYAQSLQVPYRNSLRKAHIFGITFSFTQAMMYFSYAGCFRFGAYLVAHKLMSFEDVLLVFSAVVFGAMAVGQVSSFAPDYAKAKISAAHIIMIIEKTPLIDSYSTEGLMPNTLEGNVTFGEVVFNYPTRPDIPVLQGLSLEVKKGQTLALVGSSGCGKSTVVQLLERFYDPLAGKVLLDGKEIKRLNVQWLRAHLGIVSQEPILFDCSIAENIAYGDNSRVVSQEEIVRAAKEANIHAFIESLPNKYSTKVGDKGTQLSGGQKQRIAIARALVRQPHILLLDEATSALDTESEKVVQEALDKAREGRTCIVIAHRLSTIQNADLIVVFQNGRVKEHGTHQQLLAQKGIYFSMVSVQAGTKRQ

Igrov1/T8 derived tumors = assay: Preliminary in vivo study, ABCG2 resistant tumors, combination with topotecan; parameters: species or system CB-17 SCID mice; conditions: for tumor size: intratumoral, daily, 0 to 96 hr, n = 3, p < 0.001
Ig-MXP3 cells = assay: Direct cytotoxicity; assay type: cell-based
ABCG2 [3] = target: T1, ABCG2; assay: Chemoreversal secondary assay
ABCB1 [4] = target: T2, ABCB1; assay: Chemoreversal secondary assay
[5] = tested on: drug resistant (ABCG2 expressing) tumor cells; assay: Topotecan killing of drug resistant tumor cells; assay type: cell-based; conditions: read-out: EC50 resistant cells
[6] = tested on: non-resistant (ABCG2 non-expressing) parental tumor cells; assay: Topotecan killing of parental tumor cells; assay type: cell-based; conditions: read-out: EC50 parental cells

Structure (SMILES): O=C(c1ccoc1)N1CCN(c2cc(-c3ccco3)nc3cc(-c4ccccc4)nn23)CC1 [Compound 1]
- higher potency in ABCG2 than Ko143 (ABCG2 [1]; JC-1 efflux reporter system): approximately 100 fold
- ∼Fold G2 Selective (ABCG2 [1]; quotient of average ABCB1 IC50 and average ABCG2 IC50, JC-1 efflux assay): 36 fold and 35.8 fold
- pEC50 (ABCG2 [1]; read-out: ABCG2 EC50, efflux assay, as worded): 6.89
- pEC50 (ABCB1 [2]; read-out: ABCB1 EC50, efflux assay, as worded): 5.33
- tumor size (Igrov1/T8 derived tumors; 100 nM of 1 with 150 nM TPT): dramatically reduced tumor size; also recorded: Significant tumor reduction
- ABCB1 TD50 (Jurkat-DNR cells): 5.52 µM
- ABCG2 TD50 (Ig-MXP3 cells): 18.30 µM

Structure (SMILES): CN(C)C(=O)CCSC(SCCC(=O)O)c1cccc(/C=C/c2ccc3ccc(Cl)cc3n2)c1 (stereo not drawn) [Compound 5, MK571, reference compound]
- pIC50 (ABCG2 [1]): < 4.30
- pIC50 (ABCB1 [2]): < 4.30
- pEC50 (ABCG2 [3]): 4.24
- pEC50 (ABCB1 [4]): 4.69

Structure (SMILES): Cc1nc2cc(-c3cccc(F)c3)nn2c(N2CCN(C(=O)c3ccco3)CC2)c1C [Compound 7]
- tumor size (Igrov1/T8 derived tumors; 500 nM of 7 with 150 nM TPT): dramatically reduced tumor size; also recorded: Significant tumor reduction

Structure (SMILES): CC[C@@]1(O)C(=O)OCc2c1cc1n(c2=O)Cc2cc3c(CN(C)C)c(O)ccc3nc2-1 [TPT, topotecan hydrochloride hydrate]
- pEC50 [5]: 6.51
- growth of tumors (Igrov1/T8 derived tumors; 150 nM TPT alone, intratumoral (data not shown)): did not affect the growth of tumors
- pEC50 [6]: 8.15
